Each block holds one compound with its values, some of them ahead of it.
Columns and labels:
[1] = system: B16F10 melanocyte; assay: Suppression of generation of melanin to the B16F10 melanocyte; type: cell-based, mouse; settings: 72 hours; red light 20 μW/cm^2; absorbance at 405 nm
Description: The B16F10 melanocyte is a cell strain derived from a mouse, and is a cell secreting a black pigment that is called melanin. The B16F10 melanocyte used in the present Experimental Example was distributed from ATCC (American Type Culture Collection™), and used.
The B16F10 melanocyte was divided in the 2×10^6 concentration for each well on the 6-well plate, attached, and cultivated by irradiating red light in the culture medium of Experimental Example 1 for 72 hours. After cultivation for 72 hours, the cells were separated by trypsin-EDTA (ethylenediaminetetraacetic acid), the number of cells was measured, and centrifugation was performed to collect the cells. Quantification of melanin in the cell was performed by modifying the Lotan's method. […] Melanin extracted by adding 1N NaOH (10% dimethyl sulfoxide (DMSO)) to the filtrate of the cell obtained by centrifugation was dissolved, absorbance of melanin was measured by the microplate reader at 405 nm, and melanin was quantified to measure the melanin generation hindrance ratio (%) of the sample. […]
The melanin generation hindrance ratio (%) of the B16F10 melanocyte was calculated by the following Equation 4, and the result is described in the following Table 4. […]

[2] = system: proinflammatory cytokine (1L-1α); assay: Suppression of proinflammatory cytokine expression by irradiation of ultraviolet rays (ELISA); type: cell-based, human; settings: after 10 mJ/cm^2 ultraviolet ray B; red light for 72 hours at 5 or 47.5 μW/cm^2
Description: 5×10^4 keratinocytes separated from the human epidermal tissue were put at a time on the 24-well test plate, and attached for 24 hours. Each well was washed by the PBS once, and 500 μl of the PBS was put on each well. After 10 mJ/cm^2 of ultraviolet rays were irradiated on the keratinocytes by using the ultraviolet ray B lamp, the PBS was taken out, and 350 μl of the cell cultivation medium (DMEM to which the […] was not added) was added. In addition, red light was irradiated in the culture medium of Experimental Example 1 for 72 hours to perform cultivation. 150 μl of cultivation supernatant was sampled to quantify proinflammatory cytokine (1L-1α) and thus judge the expression suppression effect of proinflammatory cytokine. The amount of proinflammatory cytokine was quantified by using the enzyme-linked immunosorbent assay, and ketoprofen known as the proinflammatory cytokine suppression material was used as the positive control group. The expression suppression ratio (%) of proinflammatory cytokine was calculated by the following Equation 7, and the result is described in the following Table 6.
Expression suppression ratio of […]

[3] = system: MMP-2; assay: Suppression of generation of collagenase MMP-2 in fibroblast; type: cell-based, human; settings: fibroblast supernatant; three days; red light 47.5 μW/cm^2; TGF-β 10 ng/ml
Description: (§1) The fibroblast (Korean Cell Line Bank, Korean) that was the human normal skin cell was inoculated on the 48-well microplate (Nunc™, Denmark) so that the number of cells was 1×10^6 for each well, cultivated in the DMEM medium (Sigma™, USA) under the condition of 37° C. for 24 hours, and cultivated by irradiating red light for three days in the culture medium of Experimental Example 1. In order to perform the comparative experiment, red light having the similar wavelength was irradiated for three days to perform cultivation, and TGF-β (10 ng/ml) known to have the effect of suppressing generation of collagenase MMP-1,2 was used as the positive control group. Cultivation was further performed for 48 hours in the culture medium having no light irradiation function to use the resulting fibroblast as the control group.
(§2) After cultivation, the supernatant liquid of each well was collected to measure the amount (ng/ml) of newly synthesized MMP-1,2 by using the MMP-1,2 analysis kit (Amersham™, USA), the MMP generation suppression ratio (%) was calculated according to the following Equation 2, and the result is described in the following Table 2.
(§3) MMP generation rate(%)=(Amount of MMP of the experimental group/Amount of MMP of the control group)×100 (Equation 2)

[4] = system: HaCaT keratinocyte; assay: Cell regeneration, MTT assay on HaCaT keratinocyte; type: cell-based; settings: three days cultivation, red light 47.5 μW/cm^2, TGF-β 10 ng/ml
Description: On the 24-well plate, the HaCaT keratinocyte (German Cancer Research Institute, Germany) was inoculated into the DMEM (Dulbecco™ Modified Eagle′ Medium) to which the 10% FBS (fetal bovine serum) was added in the density of 2×10^5 cells/well, and cultivated for one day in the humidified culture medium of 37° C. and 5% CO2. After exchanging with the serum-free DMEM, red light was irradiated for three days in the culture medium in which the aforementioned display device was installed to perform cultivation. In order to perform the comparative experiment, red light having the similar wavelength was irradiated for three days to perform cultivation, and TGF-β (transforming growth factor beta) (10 ng/ml), which is the material known to have a cell regeneration effect, was used as the positive control group. Further, cultivation was performed for three days in the culture medium having no light irradiation function to use the resulting keratinocyte as the control group. The degrees of generation of the cell were compared and evaluated by using the MTT (Microculture Tetrazolium) assay method, and the experimental result is described in the following Table 1.
In general, regeneration of the skin cell is measured by the activation rate of the cell, and the activation rate of the cell is proportional to the absorbance (at 570 nm) in Table 1. […]

[5] = system: MMP-1; assay: Suppression of generation of collagenase MMP-1 in fibroblast; type: cell-based, human; settings: fibroblast supernatant; three days; red light 47.5 μW/cm^2; TGF-β 10 ng/ml
Description: as §1, §2, §3

[6] = system: procollagen type IC-peptide (PICP); assay: Improvement of synthesis of collagen (PICP) in fibroblast; type: cell-based, human; settings: red light 47.5 μW/cm^2 for 24 hours or 72 hours; TGF-β 10 ng/ml
Description: The fibroblast that was the human normal […] cell was inoculated on the 48-well microplate so that the number of cells was 1×10^6 for each well, cultivated in the DMEM medium for 24 hours, and cultivated by irradiating red light in a predetermined quantity for one day and three days in the culture medium of Experimental Example 1. In order to perform the comparative experiment, TGF-β (10 ng/ml) known to have the collagen synthesis improvement effect was used as the positive control group, and cultivation was further performed for 48 hours in the culture medium having no red light irradiation function to use the resulting fibroblast as the control group.
After cultivation, the supernatant liquid of each well was collected to measure the amount of procollagen type IC-peptide (PICP) by using the collagen kit (Takara™, Japan) and thus measure the amount of synthesized collagen. The collagen biosynthesis increase ratio (%) was calculated according to the following Equation 3, and the result is described in the following Table 3.
Collagen biosynthesis increase ratio(%)=(Amount of collagen of the experimental group/[…])×100 (Equation 3)

Compound: Oc1ccc(O)cc1 [Comparative Example 10, hydroquinone]
Melanin generation hindrance ratio (%) [1]: 73.1%

Compound: OC[C@H]1O[C@@H](Oc2ccc(O)cc2)[C@H](O)[C@@H](O)[C@@H]1O [Comparative Example 11, arbutin]
Melanin generation hindrance ratio (%) [1]: 52.3%

Compound: CC(C(=O)O)c1cccc(C(=O)c2ccccc2)c1 (stereo not shown) [compound 12, ketoprofen]
Expression suppression ratio of proinflammatory cytokine (%) [2]: 41.1%

MMP-2 generation suppression ratio (%) [3]: 76.2% | MMP-1 generation suppression ratio (%) [5]: 75.1%
Compound: TGF-β (transforming growth factor beta) [compound 3]
Absorbance (at 570 nm) [4]: 1.423 | Collagen biosynthesis increase ratio (%) [6]: 24.7%
